# Results taken from PubChem BioAssay (NCI).
#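 Cells were grown in 96-well plates and exposed to each compound for 48 hours at five concentrations; endpoints were interpolated linearly between bracketing concentrations, or set to the highest concentration if not reached. At the TGI there is no net growth.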
# Columns and labels:
# Test in all cases: growth of human tumour cells (NCI), 48 h
# 786-0 renal = system: 786-0 renal
# A498 renal = system: A498 renal
# A549 NSCLC = system: A549 NSCLC
# ACHN renal = system: ACHN renal
# BT-549 breast = system: BT-549 breast
# CAKI-1 renal = system: CAKI-1 renal
# CCRF-CEM leukemia = system: CCRF-CEM leukemia
# COLO 205 colon = system: COLO 205 colon
# DLD-1 colon = system: DLD-1 colon
# DMS 114 small cell lung = system: DMS 114 small cell lung
# DMS 273 small cell lung = system: DMS 273 small cell lung
# DU-145 prostate = system: DU-145 prostate
# EKVX NSCLC = system: EKVX NSCLC
# HCC-2998 colon = system: HCC-2998 colon
# HCT-116 colon = system: HCT-116 colon
# HCT-15 colon = system: HCT-15 colon
# HL-60(TB) leukemia = system: HL-60(TB) leukemia
# HOP-18 NSCLC = system: HOP-18 NSCLC
# HOP-62 NSCLC = system: HOP-62 NSCLC
# HOP-92 NSCLC = system: HOP-92 NSCLC
# HS 578T breast = system: HS 578T breast
# HT29 colon = system: HT29 colon
# IGROV1 ovarian = system: IGROV1 ovarian
# K-562 leukemia = system: K-562 leukemia
# KM12 colon = system: KM12 colon
# KM20L2 colon = system: KM20L2 colon
# LOX IMVI melanoma = system: LOX IMVI melanoma
# LXFL 529 NSCLC = system: LXFL 529 NSCLC
# M14 melanoma = system: M14 melanoma
# M19-MEL melanoma = system: M19-MEL melanoma
# MALME-3M melanoma = system: MALME-3M melanoma
# MCF7 breast = system: MCF7 breast
# MDA-MB-231 breast = system: MDA-MB-231 breast
# MDA-MB-435 = system: MDA-MB-435
# MDA-N = system: MDA-N
# MOLT-4 leukemia = system: MOLT-4 leukemia
# NCI-H226 lung = system: NCI-H226 lung
# NCI-H23 lung = system: NCI-H23 lung
# NCI-H460 lung = system: NCI-H460 lung
# NCI-H522 lung = system: NCI-H522 lung
# NCI/ADR-RES ovarian = system: NCI/ADR-RES ovarian
# OVCAR-3 ovarian = system: OVCAR-3 ovarian
# OVCAR-4 ovarian = system: OVCAR-4 ovarian
# OVCAR-5 ovarian = system: OVCAR-5 ovarian
# OVCAR-8 ovarian = system: OVCAR-8 ovarian
# PC-3 prostate = system: PC-3 prostate
# RPMI-8226 leukemia = system: RPMI-8226 leukemia
# RXF 393 renal = system: RXF 393 renal
# SF-268 CNS = system: SF-268 CNS
# SF-295 CNS = system: SF-295 CNS
# SF-539 CNS = system: SF-539 CNS
# SK-MEL-2 melanoma = system: SK-MEL-2 melanoma
# SK-MEL-28 melanoma = system: SK-MEL-28 melanoma
# SK-MEL-5 melanoma = system: SK-MEL-5 melanoma
# SK-OV-3 ovarian = system: SK-OV-3 ovarian
# SN12C renal = system: SN12C renal
# SNB-19 CNS = system: SNB-19 CNS
# SNB-75 CNS = system: SNB-75 CNS
# SNB-78 CNS = system: SNB-78 CNS
# SR leukemia = system: SR leukemia
# SW-620 colon = system: SW-620 colon
# T-47D breast = system: T-47D breast
# TK-10 renal = system: TK-10 renal
# U251 CNS = system: U251 CNS
# UACC-257 melanoma = system: UACC-257 melanoma
# UACC-62 melanoma = system: UACC-62 melanoma
# UO-31 renal = system: UO-31 renal
# XF 498 CNS = system: XF 498 CNS
# RXF-631 renal = system: RXF-631 renal
compound,measurement,setting,value
CSC(=Nc1nnc(-c2ccc([N+](=O)[O-])cc2)s1)SC,TGI,786-0 renal,55.5 µM
same,TGI,A498 renal,64.6 µM
same,TGI,A549 NSCLC,> 100 µM
same,TGI,ACHN renal,> 100 µM
same,TGI,BT-549 breast,> 100 µM
same,TGI,CAKI-1 renal,38.4 µM
same,TGI,CCRF-CEM leukemia,> 100 µM
same,TGI,COLO 205 colon,> 100 µM
same,TGI,DLD-1 colon,> 100 µM
same,TGI,DMS 114 small cell lung,> 82 µM
same,TGI,DMS 273 small cell lung,> 100 µM
same,TGI,DU-145 prostate,> 100 µM
same,TGI,EKVX NSCLC,> 100 µM
same,TGI,HCC-2998 colon,> 100 µM
same,TGI,HCT-116 colon,> 83.7 µM
same,TGI,HCT-15 colon,> 100 µM
same,TGI,HL-60(TB) leukemia,> 100 µM
same,TGI,HOP-18 NSCLC,> 71.6 µM
same,TGI,HOP-62 NSCLC,53.3 µM
same,TGI,HOP-92 NSCLC,33.1 µM
same,TGI,HS 578T breast,> 81.8 µM
same,TGI,HT29 colon,> 100 µM
same,TGI,IGROV1 ovarian,> 91.6 µM
same,TGI,K-562 leukemia,> 100 µM
same,TGI,KM12 colon,> 100 µM
same,TGI,KM20L2 colon,> 100 µM
same,TGI,LOX IMVI melanoma,> 83.3 µM
same,TGI,LXFL 529 NSCLC,> 100 µM
same,TGI,M14 melanoma,> 100 µM
same,TGI,M19-MEL melanoma,> 100 µM
same,TGI,MALME-3M melanoma,> 100 µM
same,TGI,MCF7 breast,> 100 µM
same,TGI,MDA-MB-231 breast,> 100 µM
same,TGI,MDA-MB-435,> 100 µM
same,TGI,MDA-N,> 100 µM
same,TGI,MOLT-4 leukemia,> 100 µM
same,TGI,NCI-H226 lung,> 100 µM
same,TGI,NCI-H23 lung,98.6 µM
same,TGI,NCI-H460 lung,> 100 µM
same,TGI,NCI-H522 lung,99.2 µM
same,TGI,NCI/ADR-RES ovarian,> 100 µM
same,TGI,OVCAR-3 ovarian,> 89.7 µM
same,TGI,OVCAR-4 ovarian,> 85 µM
same,TGI,OVCAR-5 ovarian,> 100 µM
same,TGI,OVCAR-8 ovarian,> 100 µM
same,TGI,PC-3 prostate,> 100 µM
same,TGI,RPMI-8226 leukemia,> 100 µM
same,TGI,RXF 393 renal,45.4 µM
same,TGI,SF-268 CNS,68 µM
same,TGI,SF-295 CNS,50 µM
same,TGI,SF-539 CNS,44.5 µM
same,TGI,SK-MEL-2 melanoma,> 91.6 µM
same,TGI,SK-MEL-28 melanoma,> 100 µM
same,TGI,SK-MEL-5 melanoma,> 100 µM
same,TGI,SK-OV-3 ovarian,62.4 µM
same,TGI,SN12C renal,> 100 µM
same,TGI,SNB-19 CNS,63.2 µM
same,TGI,SNB-75 CNS,33.6 µM
same,TGI,SNB-78 CNS,60.9 µM
same,TGI,SR leukemia,> 100 µM
same,TGI,SW-620 colon,> 100 µM
same,TGI,T-47D breast,> 100 µM
same,TGI,TK-10 renal,44.8 µM
same,TGI,U251 CNS,58.1 µM
same,TGI,UACC-257 melanoma,> 100 µM
same,TGI,UACC-62 melanoma,> 76.5 µM
same,TGI,UO-31 renal,71.5 µM
same,TGI,XF 498 CNS,43.3 µM
CCN(CC)c1c(C(=O)/C=C/c2ccc(Cl)cc2)c(-c2ccccc2)nn(C)c1=O,TGI,786-0 renal,3.5 µM
same,TGI,A498 renal,4.44 µM
same,TGI,A549 NSCLC,3.89 µM
same,TGI,ACHN renal,3.38 µM
same,TGI,CAKI-1 renal,21.5 µM
same,TGI,CCRF-CEM leukemia,8.82 µM
same,TGI,COLO 205 colon,4.01 µM
same,TGI,DLD-1 colon,3.99 µM
same,TGI,DMS 114 small cell lung,3.76 µM
same,TGI,DMS 273 small cell lung,3.41 µM
same,TGI,EKVX NSCLC,6.87 µM
same,TGI,HCC-2998 colon,3.24 µM
same,TGI,HCT-116 colon,3.11 µM
same,TGI,HCT-15 colon,3.31 µM
same,TGI,HL-60(TB) leukemia,6.46 µM
same,TGI,HOP-18 NSCLC,4.83 µM
same,TGI,HOP-62 NSCLC,4.26 µM
same,TGI,HOP-92 NSCLC,4.33 µM
same,TGI,HT29 colon,3.32 µM
same,TGI,IGROV1 ovarian,4.21 µM
same,TGI,K-562 leukemia,7.27 µM
same,TGI,KM20L2 colon,7.84 µM
same,TGI,LOX IMVI melanoma,3.48 µM
same,TGI,LXFL 529 NSCLC,3.42 µM
same,TGI,M14 melanoma,4.01 µM
same,TGI,M19-MEL melanoma,3.14 µM
same,TGI,MALME-3M melanoma,4.35 µM
same,TGI,MOLT-4 leukemia,5.06 µM
same,TGI,NCI-H226 lung,4.4 µM
same,TGI,NCI-H23 lung,3.1 µM
same,TGI,NCI-H460 lung,3.67 µM
same,TGI,NCI-H522 lung,2.98 µM
same,TGI,OVCAR-3 ovarian,4.35 µM
same,TGI,OVCAR-4 ovarian,3.27 µM
same,TGI,OVCAR-5 ovarian,3.23 µM
same,TGI,OVCAR-8 ovarian,3.1 µM
same,TGI,RPMI-8226 leukemia,5.2 µM
same,TGI,RXF 393 renal,2.8 µM
same,TGI,RXF-631 renal,3.99 µM
same,TGI,SF-268 CNS,3.4 µM
same,TGI,SF-295 CNS,3.38 µM
same,TGI,SK-MEL-2 melanoma,3.62 µM
same,TGI,SK-MEL-28 melanoma,3.02 µM
same,TGI,SK-MEL-5 melanoma,3.2 µM
same,TGI,SK-OV-3 ovarian,18.7 µM
same,TGI,SN12C renal,4.59 µM
same,TGI,SNB-19 CNS,3.98 µM
same,TGI,SNB-75 CNS,7.5 µM
same,TGI,SNB-78 CNS,5.93 µM
same,TGI,SW-620 colon,4.6 µM
same,TGI,TK-10 renal,4 µM
same,TGI,U251 CNS,3.18 µM
same,TGI,UACC-257 melanoma,3.76 µM
same,TGI,UACC-62 melanoma,3.31 µM
same,TGI,UO-31 renal,3.12 µM
